Test: Solubility of the API (quality-control specification)
Format: physicochemical
Excerpt: Validated Analytical Methodology and Acceptable Limits to Ensure Identity, Quality and Purity of the API.

For `C=C(C)[C@@H]1CCC(C)=C[C@H]1c1c(O)cc(CCCCC)cc1O` [API, cannabidiol], the SOLUBILITY (in chloroform) was “SOLUBLE”, the SOLUBILITY (in ethanol 96%) was “SOLUBLE” and the SOLUBILITY (in hexane) was “SLIGHTLY SOLUABLE IN HEXANE”. For the same compound, the SOLUBILITY (in purified water) was “INSOLUBLE”.

From patent US20180264121A1, “CANNABINOID-CONTAINING ORAL PHARMACEUTICAL COMPOSITION, METHOD FOR PREPARING AND USING SAME” (PRATI-DONADUZZI & CIA LTDA., priority 2015, published 2018)
